# Laboratory results as given in patent US20090082353A1, “TREATMENT OF EPILEPSY WITH NON-IMIDAZOLE ALKYLAMINES HISTAMINE H3-RECEPTOR LIGANDS” (priority 2005, published 2009).
# Assays:
# [1] = system: intrahippocampal kainate-induced temporal lobe seizures; test: intrahippocampal kainate-induced temporal lobe seizures in mice, EEG; type: in vivo
# Procedure: Unilateral injection of kainic acid (1 nmol in 50 nl) into the dorsal hippocampus in mice induces a non-convulsive status that results in spontaneous recurrent focal seizures after 2-3 weeks. Seizures (5 to 20 times per hour in quiet mice) are characterized by a behavioural arrest and/or stereotypes, concomitant with spike and poly-spike discharges recorded in the injected hippocampus. […] This model reproduces the behavioural, EEG, pharmacological and histological characteristics of mesial temporal lobe epilepsy, a form of epilepsy which is often drug-resistant in humans. After a recovery period, implanted mice (for EEG recordings) were injected with kainic acid. They were EEG recorded at least 3 weeks after injection for selection of animals with consistent hippocampal seizure. Then, after a 20 min reference recording period, selected mice received either 3-(4-Chlorophenyl)propyl 3-piperidinopropyl ether (10 or 20 mg/kg i.p.) or saline and the recording was continued for 60 min. Treatments were given in a counter balanced order (after a one week washout period between two sessions).
# [2] = system: pharmacoresistant epilepsy; test: clinical study in pharmacoresistant epileptic patients; type: in vivo, human; details: 20 to 40 mg/day during 3 months
# Procedure: A clinical study has confirmed the efficiency of the compounds of the invention in treating pharmacoresistant epilepsy. Epileptic patients were enrolled. Those patients suffered from highly frequent seizures (generally more than 10 seizures monthly) despite their treatment consisting in one or more usual anti-epileptic drug of various classes (barbiturics, depakine, lamotrigine, gabapenine, benzodiazepines . . . ). Patients were administered with 3-(4-Chlorophenyl)propyl 3-piperidinopropyl ether at doses comprised between 20 and 40 mg/day during 3 months. Seizures frequency was reduced by 50% in a significant number of patients.
# [3] = system: high-frequency cortical rhythms (EEG); test: EEG rhythms in healthy human volunteers; type: in vivo
# Description: In healthy human volunteers, orally-administered 3-(4-Chlorophenyl)propyl 3-piperidinopropyl ether dose-dependently elicited electroencephalographic changes (i.e. enhanced high-frequency cortical rhythms at the expense of low-frequency rhythms) which are regarded as predictory of facilitated thalamo-cortical activation and inhibition of pathological synchronisation underlying spike-wave discharges in epileptic states (Avanzini et al, Clinical Neurophysiol, 2000, 111, Suppl 2, S19). Groups of 6 male subjects received 40-120 mg 3-(4-Chlorophenyl)propyl 3-piperidinopropyl ether orally.
# [4] = system: GAERS (Genetic Absence Epilepsy, Rat from Strasbourg); test: GAERS rat genetic model of absence epilepsy, EEG spike-and-wave discharges; type: in vivo
# Procedure: In a rat genetic model of human epilepsy (particularly of “absence” epilepsy in children and adults), the GAERS (Genetic Absence Epilepsy, Rat from Strasbourg; Vergnes et al, Epilepsy Res. 1989; 4, 8-13), 3-(4-Chlorophenyl)propyl 3-piperidinopropyl ether diminished by up to 77% the number and duration of spike-and-wave discharges, i.e. characteristic EEG changes of the disorder, at a dose of 20 mg/kg. In this strain of Wistar rats with spontaneous generalized non convulsive seizures (absence seizures), seizures are characterized by bilateral and synchronous spike-and-wave discharges (7-9 Hz) on EEG, concomitant with behavioural arrests. These discharges generally last about 20 sec and occur spontaneously every minute when the animals are in a state of quiet wakefulness. Pharmacological reactivity of this model is similar to human absence-epilepsy (e.g., valproate and ethosuccimide are protective). After a recovery period, implanted rats (cortical and hippocampal EEG electrodes) were recorded over a 20 min reference period. Then, 3-(4-Chlorophenyl)propyl 3-piperidinopropyl ether (5 or 20 mg/kg, i.p.) or saline were administered (n=8 per group) and the EEG recording was continued for 60 min. Rats received the alternate treatment one week later. Cumulated duration of absence-seizures was measured by 20 min periods during the two sessions.
# [5] = system: photo paroxymal response (PPR); test: photosensitivity model, intermittent photic stimulation (IPS) in epileptic patients; type: in vivo, human
# Description: Photosensitivity, defined as a generalized epileptiform reaction on intermittent photic stimulation (IPS) outlasting the stimulus train is found in about 5% of epileptic patients (Kasteleijn-Nolst trenité DGA. Acta Neurol Scand, 1989; 80:1-149). Unlike most other epilepsies, photosensitive epilepsy is a reflex epilepsy and epileptiform discharges can be evoked at any time by IPS in the laboratory. By determination of both upper and lower sensitivity limits (frequencies per flash) a so-called photosensitivity range can be determined. This range is related to liability of seizures in daily life of the patient. This photosensitivity range is relatively stable within a patient and can be diminished of abolished by antiepileptic medication. […] Furthermore, it is possible to explore the time, onset and duration of the effect, a dose-response relationship and to document serum concentration-time profiles of the study drug. […] The single blind design was chosen in order to reduce comparison bias of IPS response observed after treatment with 3-(4-Chlorophenyl)propyl 3-piperidinopropyl ether administration at Day 2 with placebo evaluation at Day 1. Five single doses will be studied (10 to 90 mg). the margin of safety was determined from the nonclinical and clinical experiments with 3-(4-Chlorophenyl)propyl 3-piperidinopropyl ether.
# [6] = system: clonic convulsions induced by pentetrazole; test: clonic convulsions induced by pentetrazole in mice; type: in vivo
# Procedure: The inventors also assessed the effects of one of the non-imidazole compound they described in WO 00/06254, BF2-649 (3-(4-chlorophenyl)propyl 3-piperidinopropyl ether) at 10 mg/kg on clonic convulsions induced by pentetrazole in mice.
# [7] = system: electrically-driven convulsions; details: in vivo; cited from earlier work
# [8] = system: pentetrazole-induced convulsions; details: mice and rats; cited from earlier work
# convulsions = details: rodents; cited from earlier work
# H3-receptor = details: cited from earlier work
# [9] = system: intrahippocampal kainate-induced temporal lobe seizures; details: mice; cited from earlier work
# [10] = system: GAERS (Genetic Absence Epilepsy, Rat from Strasbourg); details: in vivo; cited from earlier work
# seizure susceptibility = details: mice; cited from earlier work
# [11] = system: amygdaloid-kindled seizures; details: rats; cited from earlier work
smiles,measurement,setting,value
Clc1ccc(CCCOCCCN2CCCCC2)cc1 [3-(4-chlorophenyl)propyl 3-piperidinopropyl ether],frequency of discharges,"[1]; 10 or 20 mg/kg i.p., mice",reduced significantly
same,modification of interictal EEG profiles (non specific sedative effect),"[1]; 10 or 20 mg/kg i.p., mice",without any significant modification
same,"hippocampal seizures, number and duration",[1]; kainate mice,reducing both the number and duration of seizures
same,tolerability,[2],perfectly well tolerated
same,reduction of seizures frequency,"[2]; add-on, in a significant number of patients",50%
same,EEG response after repeated dosing,[3]; 40 mg for 1 week,enhancement of the response observed on single administration
same,fast EEG activities,"[3]; 40-120 mg orally, single dose, anterior leads, dose-dependent",significant enhancement of fast activities
same,diminution of number and duration of spike-and-wave discharges,"[4]; 20 mg/kg i.p., GAERS rats",up to 77%
same,spike and wave discharges at 20 min,"[4]; 20 mg/kg, 20 min",total suppression
same,spike and wave discharges at 1 h,"[4]; 20 mg/kg, 1 h",nearly total suppression
same,suppression of PPR,"[5]; 20 mg, four patients",one patient showed total suppression
same,duration of total PPR suppression,"[5]; 20 mg, one patient",6 h
same,suppression of PPR,"[5]; 40 mg, four patients",one showed partial suppression of PPR and one total suppression of PPR
same,duration of effect,[5]; 60 mg,more than 8 hours
same,onset of effect post administration,[5]; 60 mg,1 to 2 h
same,clinical response,"[5]; 60 mg, four patients",clinical response in all four patients
same,total suppression of PPR,"[5]; 60 mg, four patients",two patients showed total suppression of PPR
same,longest duration of effect,"[5]; 60 mg, one patient",up to 36 hours
same,tolerability of addition to conventional antiepileptic drugs,"[5]; add-on to Depakine, Tegretol, Keppra, Lamictal",well tolerated
same,EEG changes triggered by repetitive photic stimulation,"[5]; single dose, photosensitive patients",dose-dependently suppressed
same,modification (enhancement) of anticonvulsive properties of established antiepileptic drugs,"[6]; 10 mg/kg with carbamazepine, sodium valproate, phenyloin, diazepam, Phenobarbital",did not modify
same,preventing the convulsion (latency or duration),"[6]; 10 mg/kg, mice, pentetrazole",ineffective
C(=NC12CC3CC(CC(C3)C1)C2)N1CCC(c2cnc[nH]2)CC1.Cl.Cl [AQ0145],effect on electrically-driven convulsions,[7],reduce electrically-driven convulsions
same,effect on pentetrazole-induced convulsions,[8],prevent pentetrazole-induced convulsions
N[C@@H](Cc1c[nH]cn1)C(=O)O [L-histidine],protection from convulsions,convulsions,tend to protect rodents from convulsions
CNCCc1ccccn1 [betahistine],potency of H3-receptor antagonism,H3-receptor,only very low potency
NC(=O)N1c2ccccc2C=Cc2ccccc21 [carbamazepine],effect of antiepileptic drugs on kainate-induced seizures,[9],without significant effects
NC(=NCc1ccc(Cl)cc1)SCCCc1cnc[nH]1 [clobenpropit],effect on electrically-driven convulsions,[7],reduce electrically-driven convulsions
same,effect on pentetrazole-induced convulsions,[8],prevent pentetrazole-induced convulsions
CN(C)CCCSC(=N)N [dimaprit],potency of H3-receptor antagonism,H3-receptor,only very low potency
CCC1(C)CC(=O)NC1=O (stereo not shown) [ethosuccimide],pharmacological reactivity of the GAERS model,[10],protective
NCCc1c[nH]cn1 [histamine],protection from convulsions,convulsions,tend to protect rodents from convulsions
CC[C@@H](C(N)=O)N1CCCC1=O [levetiracetam],effect of antiepileptic drugs on kainate-induced seizures,[9],without significant effects
Cc1nc(N)nc(N)c1-c1ccc(Cl)c(Cl)c1 [metoprine],protection from convulsions,convulsions,tend to protect rodents from convulsions
c1ccc(C2(N3CCCCC3)CCCCC2)cc1 [phencyclidine],potency of H3-receptor antagonism,H3-receptor,only very low potency
O=C1NC(=O)C(c2ccccc2)(c2ccccc2)N1 [phenyloin],effect of antiepileptic drugs on kainate-induced seizures,[9],without significant effects
S=C(NC1CCCCC1)N1CCC(c2cnc[nH]2)CC1 [thioperamide],effect on seizure susceptibility,seizure susceptibility,failed to affect seizure susceptibility
same,effect on electrically-driven convulsions,[7],reduce electrically-driven convulsions
same,effect on amygdaloid-kindled seizures,[11],ineffective
same,effect on pentetrazole-induced convulsions,[8],prevent pentetrazole-induced convulsions
